The text below walks through data of patent US11753407B2, “Compounds for treating spinal muscular atrophy” (PTC Therapeutics, Inc., priority 2012, dated 2023).

Data set [1] has as its system SMN2 minigene mRNA (SMN2-A minigene) in HEK293H cells. Nature of the data set: SMN2 minigene mRNA splicing RT-qPCR assay in cultured cells. In kind it is cell-based, human. Conditions: Homo sapiens, HEK293-H; concentration increasing full length SMN2 mRNA 1.5-fold relative to vehicle-treated cells; HEK293H cells with SMN2-A minigene, 24 hours, 7-point concentration data; read-out: EC1.5x for production of full length SMN2 mRNA. The essentials:
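EC1.5× values derive from a 24 h treatment of SMN2-A minigene HEK293H cells and GAPDH-normalized RT-qPCR of exon 7-included minigene mRNA relative to vehicle-treated cells.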

The test system of data set [2] is Smn protein in SMA patient fibroblast cells (GM03813). In words: Smn protein assay in cultured cells (SMN HTRF). As to conditions: SMA patient fibroblast cells, 48 hours; for EC1.5x for Smn protein expression: 7-point concentration curve, SMN HTRF, concentration producing 1.5 times Smn protein vs DMSO vehicle control; for maximum fold (Fold) increase of Smn protein: 7-point concentration data, fold relative to vehicle control. In kind it is cell-based, human. The essentials: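 Cells were cultured 72 h, seeded at 5,000/well and dosed with seven concentrations (3.16-fold apart) for 48 h. HTRF on lysates, read at 665 and 620 nm, gave blank-corrected ΔF values relative to DMSO. Potency is reported as EC1.5×, efficacy as maximal fold Smn increase.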

`Cc1cn2cc(-c3cc(=O)n4cc(N5CCNCC5)ccc4n3)cc(C3CC3)c2n1` [Cpd 714, 2-(8-cyclopropyl-2-methylimidazo[1,2-a]pyridin-6-yl)-7-(piperazin-1-yl)-4H-pyrido[1,2-a]pyrimidin-4-one]: the melting point lay within 274 to 277 °C. Also, the EC (1.5-fold increase) in data set [1] was below 0.1 µM. Further, in data set [2], the “EC1.5x for Smn protein expression” value was “**** (an EC1.5x≤0.3 μM is indicated by four stars (****))” and the “maximum fold (Fold) increase of Smn protein” value (from here on “maximum fold (Fold) increase”) is reported as “***** (a fold increase >1.65 is indicated by five stars (*****))”.

Consider `CCN1CC=C(c2ccc3nc(-c4cc5c(C)nc(C)cn5n4)cc(=O)n3c2)CC1` [Compound 351, 2-(4,6-dimethylpyrazolo[1,5-a]pyrazin-2-yl)-7-(1-ethyl-1,2,3,6-tetrahydropyridin-4-yl)-4H-pyrido[1,2-a]pyrimidin-4-one], for which the melting point is 202 to 204 °C. For the same compound, in data set [1], the EC (1.5-fold increase) is below 0.1 µM. Besides, in data set [2], the “EC1.5x for Smn protein expression” value is given as “**** (an EC1.5x≤0.3 μM is indicated by four stars (****))” and the “maximum fold (Fold) increase” value is given as “***** (a fold increase >1.65 is indicated by five stars (*****))”.

On to `C[C@H]1CN(c2ccc3nc(-c4ccc(N(C)C)cc4)cc(=O)n3c2)CCN1` [Compound 54, 2-[4-(dimethylamino)phenyl]-7-[(3S)-3-methylpiperazin-1-yl]-4H-pyrido[1,2-a]pyrimidin-4-one], for which the melting point lay within 199 to 202 °C. Further, the EC (1.5-fold increase) in data set [1] lay in the range of 1 to 3 µM. Moreover, in data set [2], the “maximum fold (Fold) increase” value is “* (A maximum fold increase of ≤1.2 is indicated by one star (*))”.

For `CCN1CCN(c2ccc3nc(-c4ccc5nc(C)oc5c4)cc(=O)n3c2)CC1` [Compound 202, 7-(4-ethylpiperazin-1-yl)-2-(2-methyl-1,3-benzoxazol-6-yl)-4H-pyrido[1,2-a]pyrimidin-4-one], the melting point was in the range of 212 to 216 °C. Further, the EC (1.5-fold increase) in data set [1] was 0.3 to 1 µM. Further, the “maximum fold (Fold) increase” value in data set [2] was “** (a fold increase between >1.2 and ≤1.35 is indicated by two stars (**))”.

For the compound `Cc1cn2cc(-c3cc(=O)n4cc(N5CCNCC5)ccc4n3)nc2cn1` [Cpd 74, 2-(6-methylimidazo[1,2-a]pyrazin-2-yl)-7-(piperazin-1-yl)-4H-pyrido[1,2-a]pyrimidin-4-one], the melting point lay in the range of 221 to 225 °C. The EC (1.5-fold increase) in data set [1] was below 0.1 µM. In data set [2], the “EC1.5x for Smn protein expression” value was “*** (an EC1.5× between >0.3 μM and ≤1 μM is indicated by three stars (***))”; the “maximum fold (Fold) increase” value was “***** (a fold increase >1.65 is indicated by five stars (*****))”.

Regarding `CCc1nc(C)cn2nc(-c3cc(=O)n4cc(N5CCN(CC)[C@H](C)C5)ccc4n3)cc12` [Compound 630, 7-[(3R)-4-ethyl-3-methylpiperazin-1-yl]-2-(4-ethyl-6-methylpyrazolo[1,5-a]pyrazin-2-yl)-4H-pyrido[1,2-a]pyrimidin-4-one], the melting point fell in the range of 256 to 258 °C. Besides, the EC (1.5-fold increase) in data set [1] is below 0.1 µM. In data set [2], the “EC1.5x for Smn protein expression” value is listed as “**** (an EC1.5x≤0.3 μM is indicated by four stars (****))” and the “maximum fold (Fold) increase” value is recorded as “***** (a fold increase >1.65 is indicated by five stars (*****))”.

`COc1cncc(-c2cc(=O)n3cc(N4CCNCC4)ccc3n2)c1` [Compound 229, 2-(5-methoxypyridin-3-yl)-7-(piperazin-1-yl)-4H-pyrido[1,2-a]pyrimidin-4-one] had a melting point of 192 to 195 °C. For the same compound, the EC (1.5-fold increase) in data set [1] is 0.3 to 1 µM. Moreover, in data set [2], the “EC1.5x for Smn protein expression” value was “* (An EC1.5× for Smn protein expression between >3 μM and ≤10 μM is indicated by one star (*))”; the “maximum fold (Fold) increase” value is “*** (a fold increase between >1.35 and ≤1.5 is indicated by three stars (***))”.

The compound `CN1CCC(c2cn3c(=O)cc(-c4ccc5nn(C)cc5c4)nc3cn2)CC1` [Compound 567, 2-(2-methyl-2H-indazol-5-yl)-7-(1-methylpiperidin-4-yl)-4H-pyrazino[1,2-a]pyrimidin-4-one] yielded a melting point of 275 to 277 °C. For the same compound, the EC (1.5-fold increase) in data set [1] was in the range of 0.1 to 0.3 µM. Besides, in data set [2], the “EC1.5x for Smn protein expression” value was “*** (an EC1.5× between >0.3 μM and ≤1 μM is indicated by three stars (***))”; the “maximum fold (Fold) increase” value is “**** (a fold increase between >1.5 and ≤1.65 is indicated by four stars (****))”.

In the case of `COc1ccc(-c2cc(=O)n3cc(C4=CCN(C)CC4)cc(C)c3n2)cc1OC` [Compound 251, 2-(3,4-dimethoxyphenyl)-9-methyl-7-(1-methyl-1,2,3,6-tetrahydropyridin-4-yl)-4H-pyrido[1,2-a]pyrimidin-4-one], the melting point is 187 to 196 °C. In data set [1], the EC (1.5-fold increase) was below 0.1 µM. In addition, in data set [2], the “EC1.5x for Smn protein expression” value is on record as “**** (an EC1.5x≤0.3 μM is indicated by four stars (****))” and the “maximum fold (Fold) increase” value is “***** (a fold increase >1.65 is indicated by five stars (*****))”.

As to `Cc1nc2cc(-c3cc(=O)n4cc(N5CCNCC5)ccc4n3)ccc2s1` [Compound 136, 2-(2-methyl-1,3-benzothiazol-5-yl)-7-(piperazin-1-yl)-4H-pyrido[1,2-a]pyrimidin-4-one], the melting point is 228 to 230 °C. Moreover, in data set [1], the EC (1.5-fold increase) was below 0.1 µM. For the same compound, in data set [2], the “EC1.5x for Smn protein expression” value was “**** (an EC1.5x≤0.3 μM is indicated by four stars (****))” and the “maximum fold (Fold) increase” value was “***** (a fold increase >1.65 is indicated by five stars (*****))”.

`CCc1cc(-c2cc(=O)n3cc(C4CCNCC4)ccc3n2)cn2cc(C)nc12` [Compound 696, 2-(8-ethyl-2-methylimidazo[1,2-a]pyridin-6-yl)-7-(piperidin-4-yl)-4H-pyrido[1,2-a]pyrimidin-4-one] displayed a melting point of 221 to 224 °C. The EC (1.5-fold increase) in data set [1] was below 0.1 µM. Also, in data set [2], the “EC1.5x for Smn protein expression” value was “**** (an EC1.5x≤0.3 μM is indicated by four stars (****))” and the “maximum fold (Fold) increase” value is “***** (a fold increase >1.65 is indicated by five stars (*****))”.

`COc1ccc(-c2cc(=O)n3cc(N4CCN[C@@H](C)C4)cc(C)c3n2)cc1F` [Compound 327, 2-(3-fluoro-4-methoxyphenyl)-9-methyl-7-[(3S)-3-methylpiperazin-1-yl]-4H-pyrido[1,2-a]pyrimidin-4-one] displayed a melting point of 198 to 202 °C. Further, in data set [1], the EC (1.5-fold increase) was below 0.1 µM. Also, in data set [2], the “EC1.5x for Smn protein expression” value was “**** (an EC1.5x≤0.3 μM is indicated by four stars (****))”; the “maximum fold (Fold) increase” value was “**** (a fold increase between >1.5 and ≤1.65 is indicated by four stars (****))”.

As for `CCCNC1(C)CCN(c2ccc3nc(-c4cc5c(C)nc(C)cn5n4)cc(=O)n3c2)CC1` [Compound 708, 2-(4,6-dimethylpyrazolo[1,5-a]pyrazin-2-yl)-7-[4-methyl-4-(propylamino)piperidin-1-yl]-4H-pyrido[1,2-a]pyrimidin-4-one], the melting point lay within 181 to 183 °C. In addition, the EC (1.5-fold increase) in data set [1] was below 0.1 µM. In data set [2], the “EC1.5x for Smn protein expression” value is “**** (an EC1.5x≤0.3 μM is indicated by four stars (****))” and the “maximum fold (Fold) increase” value is listed as “***** (a fold increase >1.65 is indicated by five stars (*****))”.

Take `CCN1CCC(c2ccc3nc(-c4ccc5nc(C)cn5c4)cc(=O)n3c2)CC1` [Compound 478, 7-(1-ethylpiperidin-4-yl)-2-(2-methylimidazo[1,2-a]pyridin-6-yl)-4H-pyrido[1,2-a]pyrimidin-4-one]: the melting point fell in the range of 190 to 192 °C. Besides, the EC (1.5-fold increase) in data set [1] was below 0.1 µM. Besides, in data set [2], the “EC1.5x for Smn protein expression” value was “**** (an EC1.5x≤0.3 μM is indicated by four stars (****))” and the “maximum fold (Fold) increase” value is “***** (a fold increase >1.65 is indicated by five stars (*****))”.

Turning to `CCN1CCC(c2cn3c(=O)cc(-c4ccc5nc(C)cn5c4)nc3cn2)CC1` [Compound 580, 7-(1-ethylpiperidin-4-yl)-2-(2-methylimidazo[1,2-a]pyridin-6-yl)-4H-pyrazino[1,2-a]pyrimidin-4-one], the melting point is 255 to 258 °C. In data set [1], the EC (1.5-fold increase) was below 0.1 µM. Moreover, in data set [2], the “EC1.5x for Smn protein expression” value is “*** (an EC1.5× between >0.3 μM and ≤1 μM is indicated by three stars (***))”; the “maximum fold (Fold) increase” value was “***** (a fold increase >1.65 is indicated by five stars (*****))”.

For `Cc1cc(C2CCN(CCO)CC2)cn2c(=O)cc(-c3ccc4c(cnn4C)c3)nc12` [Compound 788, 7-[1-(2-hydroxyethyl)piperidin-4-yl]-9-methyl-2-(1-methyl-1H-indazol-5-yl)-4H-pyrido[1,2-a]pyrimidin-4-one], the melting point lay in the range of 225 to 228 °C. In addition, the EC (1.5-fold increase) in data set [1] is below 0.1 µM. In data set [2], the “EC1.5x for Smn protein expression” value was “**** (an EC1.5x≤0.3 μM is indicated by four stars (****))” and the “maximum fold (Fold) increase” value was “***** (a fold increase >1.65 is indicated by five stars (*****))”.

For `COc1ccc(-c2cc(=O)n3cc(C4=CCCNC4)ccc3n2)cc1OC` [Cpd 263, 2-(3,4-dimethoxyphenyl)-7-(1,2,5,6-tetrahydropyridin-3-yl)-4H-pyrido[1,2-a]pyrimidin-4-one], the melting point is 146 to 150 °C. Further, the EC (1.5-fold increase) in data set [1] lay within 0.3 to 1 µM. Besides, in data set [2], the “EC1.5x for Smn protein expression” value is “*** (an EC1.5× between >0.3 μM and ≤1 μM is indicated by three stars (***))”; the “maximum fold (Fold) increase” value was “**** (a fold increase between >1.5 and ≤1.65 is indicated by four stars (****))”.
